The subject of test [1] is Staphylococcus aureus Newbould 305 (ATCC 29740). The test is described as follows: S. aureus mouse mastitis model (MMM), intramammary treatment. Format: in vivo, lactating CD-1 mice. The following applies: for Median CFU log10: glands harvested 18 h after inoculation. As to the method:
The mice were treated intramammarily (IMAM) with enrofloxacin, fosfomycin and a combination of enrofloxacin and fosfomycin as detailed in Table 1 four hours after inoculation. Each treatment group contained at least 3 mice (6 glands). Fourteen hours later (18 hours after inoculation) mice were sacrificed, mammary glands were harvested and the CFU content evaluated by plating 10-fold serial dilutions of mammary gland homogenates. The CFU content was expressed as log10 count. The detection limit was 200 CFU/g of gland. Glands with less than 200 CFU/g were regarded as cleared of S. aureus (see Table 1).
For each treatment group median log10 reductions of CFU were determined by subtracting the median log10 CFU value of the respective group from the median log10 CFU value of the untreated control group.

A further test concerns S. aureus. The class given is cell-based, Staphylococcus aureus. The following applies: single compound. The text has this: (§1) The mutant prevention concentration (MPC) is the drug concentration that blocks the growth of the least susceptible, single-step mutant. Above this concentration, cell growth requires the presence of two or more resistance mutations. Since two concurrent mutations are expected to arise rarely, resistance is expected to develop rarely when drug concentrations are kept above the MPC. For further information regarding the MPC, it is by way of example referred to Drlica, K. (2003). The mutant selection window and antimicrobial resistance. Journal of Antimicrobial Chemotherapy, 52(1), 11-17; and to Blondeau, J. M. (2009). New concepts in antimicrobial susceptibility testing: the mutant prevention concentration and mutant selection window approach. Veterinary dermatology, 20(5-6), 383-396.

Another test relates to E. coli. The class given is cell-based, Escherichia coli. The conditions noted are these: single compound.
Excerpt: as §1

Test [2] has as its system Streptococus uberis, Staphylococus aureus, Escherichia coli, other streptococci and mixed infections. The test is described as follows: Field study, dairy cattle with clinical mastitis. The class given is in vivo. The following applies: 400 mg cefazolin and/or 1000 mg fosfomycin per quarter, paraffin based ointment, three times at 24 h interval; milk samples 1-3 weeks after treatment. On the procedure: In a first field-study, dairy cattle with clinical mastitis were treated under field conditions with either cefazolin, fosfomycin or a combination of both compounds. […] The diseased quarters were treated with this ointment three consecutive times with an interval of 24 hours between each application. When a milk sample was taken from the diseased udder quarters before the treatment for the diagnosis of mastitis infection, pathogenic bacteria typical of clinical mastitis were isolated, i.e. Streptococus uberis, Staphylococus aureus, Escherichia coli, other streptococci and mixed infections of the aforementioned species. […] Diseased udder quarters were considered cured when the clinical symptoms of mastitis had disappeared within one week without requiring a new antibiotic treatment and when the causative pathogenic bacterium, found in the diagnostic milk sample shortly before treatment, could not be isolated from any of the milk samples taken from one to three weeks following treatment. The cure rate of mastitis infection was higher in the udder quarters treated with the combination ointment (cefazolin together with fosfomycin), i.e. 17/38 (45%), than in the quarters treated with the ointment containing cefazolin alone ( 11/35, 31%) or fosfomycin alone ( 13/37, 35%).

In a further test the test system is Staphylococcus aureus. Briefly: Field trial, dairy cattle with subclinical mastitis. Format: in vivo. The conditions noted are these: 400 mg cefazolin and/or 1000 mg fosfomycin per quarter, six times at 12 h interval; for Cure rate of S. aureus infection / Cure rate of S. aureus infection (cured quarters/treated quarters): paraffin based ointment, milk samples 3 and 4 weeks after treatment. As to the method: In another field trial, dairy cattle with subclinical mastitis, i.e. persistent, chronic udder infections caused by Staphylococcus aureus, were treated with either cefazolin, fosfomycin or a combination of both compounds. […] The affected quarters were treated with this ointment six consecutive times with an interval of 12 hours between each application. […] Following treatment, the level of udder inflammation, as measured by the Somatic Cell Count in the milk samples post treatment, was lower in the udders treated with the cefazolin-fosfomycin combination (46% of milk samples with a SCC lower than 300,000 cells/mL) than in udders treated with cefazolin alone (30% of milk samples with a SCC lower than 300,000 cells/mL) or with fosfomycin alone (24% of milk samples with a SCC lower than 300,000 cells/mL).

[3] abbreviates: dose 100 μg IMAM, listed as enrofloxacin.

As to `CCN1CCN(c2cc3c(cc2F)c(=O)c(C(=O)O)cn3C2CC2)CC1` [Enrofloxacin, enrofloxacin], in test [1] (dose 100 μg IMAM), the “Cleared glands % (less than 200 CFU/g)” value amounted to 0% and the “log10 CFU reduction (median, vs untreated control)” value (from here on “log10 CFU reduction”) turned out to be 1.41 log10. For the same molecule, the “Median CFU log10” value in test [1] (dose 100 μg IMAM 4 h after inoculation) turned out to be 6.8 CFU log10. In test [1] (setting [3]), the “Cleared glands % (less than 200 CFU/g)” value is recorded as “does not eliminate the infection” and the “log10 CFU reduction” value amounted to 1.4 log10. Also, in the test with S. aureus, the “MPC against S. aureus” value was found to be 3 µg/mL.
As for `C[C@@H]1O[C@@H]1P(=O)(O)O` [Fosfomycin, [(2R,3S)-3-methyloxiran-2-yl]phosphonic acid], the “MPC against E. coli” value in the test on E. coli was determined as 200 µg/mL. In test [2], the “Cure rate of mastitis infection” value stood at 35% and the “Cure rate of mastitis infection (cured quarters/treated quarters)” value is on record as 13/37. For the same molecule, in test [1] (dose 100 μg IMAM), the “Cleared glands % (less than 200 CFU/g)” value was “does not eliminate the infection” and the “log10 CFU reduction” value turned out to be 2.0 log10. Besides, in test [1] (dose 500 μg IMAM), the “Cleared glands % (less than 200 CFU/g)” value worked out at 0% and the “log10 CFU reduction” value is 3.3 log10. The “Median CFU log10” value in test [1] (dose 500 μg IMAM 4 h after inoculation) turned out to be 5.0 CFU log10. Moreover, in test [1] (dose 500 μg IMAM, listed as fosfomycin), the “Cleared glands % (less than 200 CFU/g)” value is on record as “does not eliminate the infection”. For the same molecule, in test [1] (dose 1000 μg IMAM), the “Cleared glands % (less than 200 CFU/g)” value was determined as 0% and the “log10 CFU reduction” value is reported as 5.1 log10. The “Median CFU log10” value in test [1] (dose 1000 μg IMAM 4 h after inoculation) stood at 3.2 CFU log10. The “Cleared glands % (less than 200 CFU/g)” value in test [1] (dose 1000 μg IMAM, listed as fosfomycin) is reported as “does not eliminate the infection”. Also, the “MPC against S. aureus” value in the test with S. aureus came out at 1500 µg/mL. Also, in the test with Staphylococcus aureus, the “Cure rate of S. aureus infection” value worked out at 57%; the “Cure rate of S. aureus infection (cured quarters/treated quarters)” value is given as 27/47; the “Cured quarters with SCC returned to normal (lower than 300,000 cells per mL)” value is 19%; the “Cured quarters with SCC returned to normal (lower than 300,000 cells per mL), quarters/treated quarters” value is reported as 9/47. Also, the “Milk samples post treatment with a SCC lower than 300,000 cells/mL” value in the test on Staphylococcus aureus is 24%.
Consider `CC1(C)S[C@@H]2[C@H](NC(=O)[C@H](N)c3ccc(O)cc3)C(=O)N2[C@H]1C(=O)O` [amoxicillin], for which, in test [1] (dose 100 μg IMAM), the “Cleared glands % (less than 200 CFU/g)” value is on record as “does not eliminate the infection” and the “log10 CFU reduction” value is 1.6 log10.
For `Cc1nnc(SCC2=C(C(=O)O)N3C(=O)[C@@H](NC(=O)Cn4cnnn4)[C@H]3SC2)s1` [cefazolin], the “MPC against E. coli” value with E. coli is 64 µg/mL. Besides, in test [2], the “Cure rate of mastitis infection” value was found to be 31% and the “Cure rate of mastitis infection (cured quarters/treated quarters)” value is 11/35. In test [1] (dose 100 μg IMAM), the “Cleared glands % (less than 200 CFU/g)” value is on record as “does not eliminate the infection” and the “log10 CFU reduction” value was determined as 5.1 log10. In test [1] (dose 50 microgram IMAM), the “Cleared glands % (less than 200 CFU/g)” value is reported as “does not eliminate the infection” and the “log10 CFU reduction” value is recorded as 4.5 log10. Besides, the “MPC against S. aureus” value in the test on S. aureus was found to be 1.25 µg/mL. For the same molecule, in the test on Staphylococcus aureus, the “Cure rate of S. aureus infection” value was determined as 46%; the “Cure rate of S. aureus infection (cured quarters/treated quarters)” value is reported as 20/43; the “Cured quarters with SCC returned to normal (lower than 300,000 cells per mL)” value worked out at 23%; the “Cured quarters with SCC returned to normal (lower than 300,000 cells per mL), quarters/treated quarters” value is 10/43. For the same molecule, the “Milk samples post treatment with a SCC lower than 300,000 cells/mL” value in the test with Staphylococcus aureus is on record as 30%.
`CC[C@@H]1CCN[C@H](C(=O)N[C@@H]([C@H]2O[C@H](SC)[C@H](O)[C@@H](O)[C@H]2O)[C@H](C)Cl)C1` [pirlimycin]: in test [1] (dose 10 microgram IMAM), the “Cleared glands % (less than 200 CFU/g)” value is “does not eliminate the infection” and the “log10 CFU reduction” value is 3.3 log10. In the test with S. aureus, the “MPC against S. aureus” value is 2 µg/mL.

The values are drawn from patent US10265330B2, “Pharmaceutical compositions and treatment of mastitis” (BAYER ANIMAL HEALTH GMBH, priority 2012, dated 2019).
